Results: patent publication US10759791B2, “Mammalian and bacterial nitric oxide synthase inhibitors” (Northwestern University, priority 2014, dated 2020)
Values joined by “and” are separate entries in the source; they are usually repeats but may differ in a detail not shown here. Equal entries are not always repeated. Marks after values point to notes of the source that are not given here.

What was measured:
CYP1A2 = CYP1A2 (Homo sapiens (Human), UniProt P05177); test: CYP inhibition assay, human liver microsomes; conditions: human, microsomes, pH 7.4
CYP2C8 = CYP2C8 (Homo sapiens (Human), UniProt P10632); test: in vitro; conditions: microsomes, pH 7.4
in vitro [1] = conditions: human, microsomes, pH 7.4
CYP2B6 = CYP2B6 (Homo sapiens (Human), UniProt P20813); test: in vitro; conditions: microsomes, pH 7.4
CYP2C9 = CYP2C9 (Homo sapiens (Human), UniProt P11712); test: in vitro; conditions: microsomes, pH 7.4
CYP2D6 = CYP2D6 (Homo sapiens (Human), UniProt P10635); test: CYP inhibition assay, human liver microsomes; conditions: pH 7.4
[2] = 37° C.
in vitro [3] = conditions: human, pH 7.4
[4] = human, microsomes, 0 h, 1 μM, pH 7.4

CYP2D6, sequence (P10635 whole entry): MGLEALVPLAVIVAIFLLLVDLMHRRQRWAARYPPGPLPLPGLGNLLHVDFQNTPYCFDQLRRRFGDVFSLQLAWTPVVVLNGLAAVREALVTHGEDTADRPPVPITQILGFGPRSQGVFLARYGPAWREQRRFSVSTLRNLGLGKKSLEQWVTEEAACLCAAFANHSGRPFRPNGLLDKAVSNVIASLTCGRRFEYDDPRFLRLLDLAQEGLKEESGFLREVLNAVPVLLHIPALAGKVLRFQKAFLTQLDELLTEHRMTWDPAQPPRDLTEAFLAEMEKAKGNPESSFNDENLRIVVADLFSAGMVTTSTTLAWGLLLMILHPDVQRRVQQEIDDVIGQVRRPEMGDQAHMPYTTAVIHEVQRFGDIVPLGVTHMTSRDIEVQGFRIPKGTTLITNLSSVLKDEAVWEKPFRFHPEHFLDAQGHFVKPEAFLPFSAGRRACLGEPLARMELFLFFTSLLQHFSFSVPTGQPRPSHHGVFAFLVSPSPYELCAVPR
CYP2C9, sequence (P11712 whole entry): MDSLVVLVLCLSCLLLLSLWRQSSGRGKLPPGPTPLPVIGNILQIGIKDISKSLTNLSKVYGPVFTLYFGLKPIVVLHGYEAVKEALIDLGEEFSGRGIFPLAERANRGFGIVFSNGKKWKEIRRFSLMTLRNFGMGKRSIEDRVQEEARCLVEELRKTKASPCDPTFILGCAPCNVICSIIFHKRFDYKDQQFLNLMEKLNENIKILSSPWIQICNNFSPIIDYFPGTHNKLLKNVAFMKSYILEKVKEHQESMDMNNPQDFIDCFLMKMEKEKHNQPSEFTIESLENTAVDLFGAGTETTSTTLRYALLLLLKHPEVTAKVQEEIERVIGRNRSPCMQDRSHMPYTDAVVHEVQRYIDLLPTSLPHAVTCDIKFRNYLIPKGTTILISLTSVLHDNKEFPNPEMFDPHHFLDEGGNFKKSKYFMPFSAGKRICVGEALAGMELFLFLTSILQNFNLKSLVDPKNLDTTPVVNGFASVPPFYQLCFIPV
CYP2C8, sequence (P10632 whole entry): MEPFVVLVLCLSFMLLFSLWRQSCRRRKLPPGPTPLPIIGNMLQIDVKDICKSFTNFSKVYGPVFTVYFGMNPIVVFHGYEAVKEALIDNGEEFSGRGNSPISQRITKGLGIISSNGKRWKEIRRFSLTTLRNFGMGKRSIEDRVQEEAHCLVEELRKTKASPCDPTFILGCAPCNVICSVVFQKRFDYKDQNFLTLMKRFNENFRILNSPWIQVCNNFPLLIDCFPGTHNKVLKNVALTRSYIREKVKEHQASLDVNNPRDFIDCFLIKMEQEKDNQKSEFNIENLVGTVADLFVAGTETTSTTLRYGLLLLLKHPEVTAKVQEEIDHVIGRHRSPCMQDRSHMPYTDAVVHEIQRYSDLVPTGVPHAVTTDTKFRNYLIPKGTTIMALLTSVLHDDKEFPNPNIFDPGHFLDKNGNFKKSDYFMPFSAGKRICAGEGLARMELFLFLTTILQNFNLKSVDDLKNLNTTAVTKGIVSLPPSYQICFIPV
CYP1A2, sequence (P05177 whole entry): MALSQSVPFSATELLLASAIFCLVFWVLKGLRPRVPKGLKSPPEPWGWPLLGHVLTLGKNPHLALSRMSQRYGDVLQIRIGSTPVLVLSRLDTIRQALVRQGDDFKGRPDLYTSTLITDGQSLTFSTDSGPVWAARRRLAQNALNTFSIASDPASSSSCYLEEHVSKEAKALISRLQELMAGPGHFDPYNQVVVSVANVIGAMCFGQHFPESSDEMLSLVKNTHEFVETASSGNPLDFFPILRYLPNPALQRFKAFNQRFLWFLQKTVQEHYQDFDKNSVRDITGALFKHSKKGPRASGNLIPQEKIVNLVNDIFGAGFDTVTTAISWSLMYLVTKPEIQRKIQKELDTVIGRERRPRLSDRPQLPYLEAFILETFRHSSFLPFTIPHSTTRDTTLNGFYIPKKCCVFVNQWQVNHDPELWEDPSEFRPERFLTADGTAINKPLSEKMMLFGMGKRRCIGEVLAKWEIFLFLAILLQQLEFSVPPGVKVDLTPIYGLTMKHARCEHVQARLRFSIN

## CNCCCc1cncc(CCc2cc(C)cc(N)n2)c1 [Compound 14j, 4-Methyl-6-(2-(5-(3-(methylamino)propyl)pyridin-3-yl)ethyl)pyridin-2-amine]
1 μM
  % Remaining, 90 minutes (−NADPH): 78^b % and 78%
  CLh, int: 10.4 mL/min/kg
1 μM, heat inactivated microsomes minus NADPH
  % Remaining, 90 minutes (Buffer): 95^b % and 95%
1 μM, in 60 min in the absence of NADPH or in 90 min in the presence of NADPH
  % of the compound lost: 23%
[4]
  Percentage in HLM, Minus NADPH, 0 min: 100%
  Percentage in HLM, Plus NADPH, 0 min: 100%
human, microsomes, […], 1 μM, pH 7.4
  Percentage in HLM, Plus NADPH, 45 min: 87%
Minus NADPH (buffer control)
  Percentage in HLM, Heat inactivated microsomes, 0 min: 100%
CYP1A2
  inhibition at 10 min, 10 µM: 9%
CYP2C8
  inhibition at 10 µM: 2%
In vitro [1]
  half-life at 1 μM: > 60 min
CYP2B6
  inhibition at 10 µM: 8%
CYP2C9
  inhibition at 10 min, 10 µM: 0%
CYP2D6
  inhibition at 10 min, 10 µM: 6%
[2]
  % compound remaining at 4 h: 90%
In vitro [3]
  recovery at 4 h, 5 μM: 91%
